Measurements from PubChem BioAssay AID256 (DTP/NCI, 2004).
Values joined by “and” are separate entries in the source; they are usually repeats but may differ in a detail not shown here. Equal values may be shown once. Toxic doses and inconclusive results are not listed. Rule for the calls: active = survival T/C of 150% or more; inactive = T/C below 125% in these data.

Tested on: CD2F1 mice, L1210 leukemia ip, survival T/C
Assay: NCI In Vivo Anticancer Drug Screen. Data for tumor model L1210 Leukemia (intraperitoneal) in CD2F1 (CDF1) mice
Conditions: endpoint: mean survival time, higher = longer survival
How it was run: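 Antitumor effect is scored in animals hosting a serially transplanted tumor. Values compare compound-dosed animals against vehicle-only controls as a simple quotient.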

[1] = dose: 100.0 mg/kg/injection, schedule: Q01DX001 (ip), vehicle: Klucel (hydroxypropylcellulose) (HPC)
[2] = dose: 200.0 mg/kg/injection, schedule: Q01DX001 (ip), vehicle: Klucel (hydroxypropylcellulose) (HPC)
[3] = dose: 400.0 mg/kg/injection, schedule: Q01DX001 (ip), vehicle: Klucel (hydroxypropylcellulose) (HPC)
[4] = dose: 100.0 mg/kg/injection, schedule: Q01DX009 (ip), vehicle: saline with Tween-80
[5] = dose: 200.0 mg/kg/injection, schedule: Q01DX009 (ip), vehicle: saline with Tween-80
[6] = dose: 400.0 mg/kg/injection, schedule: Q01DX009 (ip), vehicle: saline with Tween-80
[7] = dose: 100.0 mg/kg/injection, schedule: Q04DX003 (ip), vehicle: saline with Tween-80
[8] = dose: 200.0 mg/kg/injection, schedule: Q04DX003 (ip), vehicle: saline with Tween-80
[9] = dose: 400.0 mg/kg/injection, schedule: Q04DX003 (ip), vehicle: saline with Tween-80
[10] = dose: 25.0 mg/kg/injection, schedule: Q01DX001 (ip), vehicle: saline with Tween-80
[11] = dose: 50.0 mg/kg/injection, schedule: Q01DX001 (ip), vehicle: saline with Tween-80
[12] = dose: 100.0 mg/kg/injection, schedule: Q01DX001 (ip), vehicle: saline with Tween-80
[13] = dose: 100.0 mg/kg/injection, schedule: Q04DX003 (ip), vehicle: saline
[14] = dose: 200.0 mg/kg/injection, schedule: Q04DX003 (ip), vehicle: saline
[15] = dose: 400.0 mg/kg/injection, schedule: Q04DX003 (ip), vehicle: saline
[16] = dose: 100.0 mg/kg/injection, schedule: Q04DX002 (ip), vehicle: saline with Tween-80

Measured: T/C

Cc1ccc(N2CC(O)CSC2=Nc2ccccc2)cc1 (centres undefined)
inactive: [1] 93 % of control | [2] 91 % of control | [3] 91 % of control

CC(=O)C1CN(C(C)(C)C)C1
inactive: dose: 6.25 mg/kg/injection, schedule: Q01DX009 (ip), vehicle: saline 93 % of control | dose: 6.25 mg/kg/injection, schedule: Q04DX003 (ip), vehicle: saline 98 % of control | dose: 12.5 mg/kg/injection, schedule: Q01DX009 (ip), vehicle: saline 98 % of control | dose: 12.5 mg/kg/injection, schedule: Q04DX003 (ip), vehicle: saline 96 % of control | dose: 25.0 mg/kg/injection, schedule: Q01DX009 (ip), vehicle: saline 98 % of control | dose: 25.0 mg/kg/injection, schedule: Q04DX003 (ip), vehicle: saline 95 % of control

O=C(C1=CC=CC1=P(c1ccccc1)(c1ccccc1)c1ccccc1)C(Cl)(Cl)Cl
inactive: [4] 94 % of control | [5] 107 % of control | [6] 107 % of control

CC(C)CCOC(=O)CN(CC(=O)OCCC(C)C)c1ccccc1
inactive: [4] 89 % of control | [7] 95 % of control | [5] 91 % of control | [8] 97 % of control | [6] 97 % of control | [9] 105 % of control

CCC[As](=O)(O)CC[As](=O)(O)CCC
inactive: [10] 95 % of control | [11] 95 % of control | [12] 103 % of control

CN1C2Cc3cc4c(cc3C1Cc1cc3c(cc12)OCO3)OCO4
inactive: dose: 75.0 mg/kg/injection, schedule: Q01DX001 (ip), vehicle: saline 100 % of control | dose: 150.0 mg/kg/injection, schedule: Q01DX001 (ip), vehicle: saline 94 % of control

CC(C)OC(=O)C(NC=O)C(C)(C)S (centres undefined)
inactive: [4] 100 % of control | [5] 96 % of control | [6] 95 % of control

C[Si](OCc1ccc(-c2ccccc2)cc1)c1ccccc1
inactive: dose: 100.0 mg/kg/injection, schedule: Q01DX009 (ip), vehicle: saline 99 % of control | [13] 96 % of control | dose: 200.0 mg/kg/injection, schedule: Q01DX009 (ip), vehicle: saline 100 % of control | [14] 93 % of control | dose: 400.0 mg/kg/injection, schedule: Q01DX009 (ip), vehicle: saline 94 % of control | [15] 98 % of control

CCCCCC(CC)OC(=O)Nc1cccc2ccccc12 (centres undefined)
inactive: [7] 89 % of control | [8] 101 % of control | [9] 100 % of control

S=C1OC(c2ccccc2)(c2ccccc2)c2ccsc21
inactive: [10] 95 % of control | [11] 95 % of control

CN(C)N=Nc1ccc(C(=O)N/N=C/c2ccccc2[N+](=O)[O-])cc1
inactive: [13] 104 % of control | [14] 101 % of control | [15] 115 % of control

Nc1nc(CCCCc2ccccc2)c(N=Nc2ccc(Cl)cc2)c(=O)[nH]1
inactive: [4] 90 % of control | [5] 90 % of control | [6] 87 % of control

Nc1nc2c(c(=O)[nH]1)N(C=O)C(CNc1ccc(C(=O)N[C@@H](CCC(=O)O)C(=O)O)cc1)CN2 (some centres undefined)
inactive: dose: 67.0 mg/kg/injection, schedule: Q01DX009 (sc), vehicle: other 105 % of control | dose: 100.0 mg/kg/injection, schedule: Q01DX009 (sc), vehicle: other 101 % of control | dose: 150.0 mg/kg/injection, schedule: Q01DX009 (sc), vehicle: other 101 % of control | dose: 225.0 mg/kg/injection, schedule: Q01DX009 (sc), vehicle: other 108 % of control | dose: 338.0 mg/kg/injection, schedule: Q01DX009 (sc), vehicle: other 103 % of control

CN(CCCN(C)N=Nc1ccccc1C(=O)O)N=Nc1ccccc1C(=O)O
inactive: dose: 100.0 mg/kg/injection, schedule: Q04DX003 (ip), vehicle: Klucel (hydroxypropylcellulose) (HPC) 102 % of control | dose: 200.0 mg/kg/injection, schedule: Q04DX003 (ip), vehicle: Klucel (hydroxypropylcellulose) (HPC) 100 % of control | dose: 400.0 mg/kg/injection, schedule: Q04DX003 (ip), vehicle: Klucel (hydroxypropylcellulose) (HPC) 98 % of control

O=c1nc2c(ncn2C2OC(CO)C(O)C2O)c(NCCc2ccccc2)[nH]1 (centres undefined)
inactive: dose: 12.5 mg/kg/injection, schedule: Q01DX005 (ip), vehicle: water 93 % of control | dose: 25.0 mg/kg/injection, schedule: Q01DX005 (ip), vehicle: water 98 % of control | dose: 50.0 mg/kg/injection, schedule: Q01DX005 (ip), vehicle: water 96 % of control | dose: 100.0 mg/kg/injection, schedule: Q01DX005 (ip), vehicle: water 112 % of control

O=C(O)c1ccc(Cl)cc1Nc1ccc(O)cc1
inactive: dose: 25.0 mg/kg/injection, schedule: Q04DX002 (ip), vehicle: saline with Tween-80 96 % of control | dose: 50.0 mg/kg/injection, schedule: Q04DX002 (ip), vehicle: saline with Tween-80 116 % of control | [16] 101 % of control and 102 % of control

S=C(Nc1ccc(Cl)cc1)Nc1ccc(Cc2ccc(NC(=S)Nc3ccc(Cl)cc3)cc2)cc1
inactive: [1] 93 % of control | [2] 92 % of control | [3] 93 % of control

O=C(O)c1c(Cl)ccc(F)c1Cl
inactive: [16] 105 % of control | dose: 200.0 mg/kg/injection, schedule: Q04DX002 (ip), vehicle: saline with Tween-80 105 % of control | dose: 400.0 mg/kg/injection, schedule: Q04DX002 (ip), vehicle: saline with Tween-80 94 % of control

N#CC(/C=C/c1ccccc1)Nc1ccccc1N (centres undefined)
inactive: [4] 98 % of control | [5] 95 % of control | [6] 93 % of control

Cc1cc(C)[nH]c(=S)n1
inactive: dose: 50.0 mg/kg/injection, schedule: Q01DX009 (ip), vehicle: saline with Tween-80 100 % of control | [4] 96 % of control | [5] 96 % of control

Cc1nc(/N=C(/N)N(C)C)[nH]c(=O)c1C
inactive: dose: 100.0 mg/kg/injection, schedule: Q01DX001 (ip), vehicle: saline 97 % of control | dose: 200.0 mg/kg/injection, schedule: Q01DX001 (ip), vehicle: saline 103 % of control | dose: 400.0 mg/kg/injection, schedule: Q01DX001 (ip), vehicle: saline 109 % of control

Cc1oc2ccc(NS(=O)(=O)c3ccccc3)cc2c1C(=O)O
inactive: [7] 97 % of control

Cc1cccc(CC(F)F)c1
inactive: dose: 50.0 mg/kg/injection, schedule: Q04DX003 (ip), vehicle: saline with Tween-80 109 % of control | [12] 104 % of control | [7] 97 % of control | dose: 200.0 mg/kg/injection, schedule: Q01DX001 (ip), vehicle: saline with Tween-80 103 % of control | [8] 96 % of control
